In the supplement of paper PMC10307832:

How the values were obtained:
Experiment in all cases: relative viability (nuclei count vs DMSO), 5 days (fraction); higher = more cells survive
Bortezomib + Alpelisib = compound: CC(C)C[C@H](NC(=O)[C@H](Cc1ccccc1)NC(=O)c1cnccn1)B(O)O [Bortezomib] + Cc1nc(NC(=O)N2CCC[C@H]2C(N)=O)sc1-c1ccnc(C(C)(C)C(F)(F)F)c1 [Alpelisib] (partner 2 µM)
How it was run: (§1)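 Lung cancer cell lines, seeded in 1536-well plates, were treated the following day by pin tool with a single drug or with five library-drug doses (not always all listed) in √10 steps on top of a fixed anchor-drug dose. Cells were fixed and nuclei stained in one step after 5 days, and nuclei were counted. Relative viability is the nuclei count for treated wells divided by that for vehicle wells, reported as medians of duplicate plates.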

[1] = compound: CC1=CC(=NN1)NC2=CC(=NC(=N2)/C=C/C3=CC=CC=C3)N4CCN(CC4)C + O=C(CCCCCCC(=O)Nc1ccccc1)NO [Vorinostat] (partner 1 µM)
How it was run: as §1

Obatoclax + Pictilisib = compound: COC1=CC(c2cc3ccccc3[nH]2)=N/C1=C\c1[nH]c(C)cc1C [Obatoclax] + CS(=O)(=O)N1CCN(Cc2cc3nc(-c4cccc5[nH]ncc45)nc(N4CCOCC4)c3s2)CC1 [Pictilisib] (partner 1 µM)
How it was run: as §1

Bortezomib + Luminespib = compound: CC(C)C[C@H](NC(=O)[C@H](Cc1ccccc1)NC(=O)c1cnccn1)B(O)O [Bortezomib] + CCNC(=O)c1noc(-c2cc(C(C)C)c(O)cc2O)c1-c1ccc(CN2CCOCC2)cc1 [Luminespib] (partner 0.01 µM)
How it was run: as §1

Cell Line	relative viability (Bortezomib + Alpelisib; first compound 0.0002 µM)	relative viability (Bortezomib + Alpelisib; first compound 0.000632 µM)	relative viability (Bortezomib + Alpelisib; first compound 0.002 µM)	relative viability (Bortezomib + Alpelisib; first compound 0.006325 µM)	relative viability (Bortezomib + Alpelisib; first compound 0.02 µM)	relative viability ([1]; first compound 0.08 µM)	relative viability ([1]; first compound 0.253 µM)	relative viability ([1]; first compound 0.8 µM)	relative viability ([1]; first compound 2.53 µM)	relative viability ([1]; first compound 8 µM)	relative viability (Obatoclax + Pictilisib; first compound 0.01 µM)	relative viability (Obatoclax + Pictilisib; first compound 0.03162 µM)	relative viability (Obatoclax + Pictilisib; first compound 0.3162 µM)	relative viability (Obatoclax + Pictilisib; first compound 1 µM)	relative viability (Obatoclax + Pictilisib; first compound 0.1 µM)	relative viability (Bortezomib + Luminespib; first compound 0.0002 µM)	relative viability (Bortezomib + Luminespib; first compound 0.000632 µM)	relative viability (Bortezomib + Luminespib; first compound 0.002 µM)	relative viability (Bortezomib + Luminespib; first compound 0.006325 µM)	relative viability (Bortezomib + Luminespib; first compound 0.02 µM)
HCC-78	0.331	0.359	0.258	0.136	0.148	0.465	0.518	0.461	0.372	0.246	0.179	0.207	0.158	0.2	–	–	–	–	–	–
HCC-366	0.467	0.316	0.409	0.339	0.0134	0.38	0.505	0.136	0.0276	0.0214	0.136	0.151	0.159	0.12	0.172	–	–	–	–	–
HCC-827	1.12	0.948	0.8	0.149	0.126	0.282	0.908	0.823	0.773	0.215	1.04	0.948	0.916	1.04	0.953	0.533	0.588	0.415	0.152	0.122
HOP-62	0.938	1.08	0.33	0.0928	0.067	0.603	0.566	0.637	0.387	0.129	0.649	0.803	0.761	0.757	0.449	0.921	0.907	0.67	0.288	0.0887
IA-LM	0.773	0.669	0.561	0.0626	0.0159	1.02	1.12	0.874	0.887	0.332	0.345	0.326	0.113	0.0716	0.315	–	–	–	–	–
LC-2-ad	0.838	–	0.898	0.0898	0.0932	0.709	0.751	0.467	0.186	0.15	0.497	0.563	0.357	0.154	0.602	0.972	1.06	0.64	0.226	0.214
LCLC-97TM1	0.245	0.242	0.113	0.11	0.114	0.625	0.787	0.74	0.19	0.0813	0.18	0.201	0.139	0.154	0.325	0.674	0.756	0.687	0.123	0.139
LCLC-103H	0.955	0.893	1.02	1.07	0.166	0.824	0.69	0.779	0.582	0.294	0.602	0.565	0.612	0.65	0.719	0.902	0.955	0.495	0.175	0.152
LK-2	–	1.01	0.263	0.256	0.27	0.254	0.155	0.283	0.223	0.126	0.566	0.639	0.502	0.581	0.655	0.182	0.186	0.238	0.182	0.172
LOU-NH91	0.72	0.628	0.395	0.309	0.305	0.954	0.935	0.941	0.594	0.41	0.541	0.503	0.469	0.533	0.505	0.352	0.312	0.279	0.252	0.231
LU99A	0.424	–	0.466	0.224	0.141	0.481	0.434	0.425	0.182	0.0957	0.337	0.298	0.263	0.2	0.364	0.227	0.178	0.231	0.24	0.184
NCI-H522	–	–	–	–	–	0.894	0.93	1.12	0.854	0.426	–	–	–	–	–	0.983	0.97	0.959	0.745	0.367
NCI-H1299	1.02	1.07	1.08	0.89	0.304	–	–	–	–	–	0.74	0.937	0.447	0.129	0.637	–	–	–	–	–
NCI-H1563	0.882	0.848	0.844	0.505	0.489	–	–	–	–	–	0.615	0.639	0.655	0.634	0.644	0.47	0.527	0.562	0.449	0.331
NCI-H1623	–	–	–	–	–	–	–	–	–	–	–	–	–	–	–	0.498	0.496	0.551	0.364	0.277
NCI-H1648	–	–	–	–	–	0.437	0.488	0.666	0.346	0.203	–	–	–	–	–	–	–	–	–	–
NCI-H1650	–	–	–	–	–	0.523	0.733	0.553	0.14	0.0794	0.572	0.749	0.412	0.315	0.571	0.186	0.185	0.177	0.203	0.217
NCI-H1703	0.32	0.256	0.131	0.134	0.0835	–	–	–	–	–	0.263	0.221	0.203	0.2	0.216	–	–	–	–	–
NCI-H1792	0.576	0.646	0.579	0.714	0.319	–	–	–	–	–	0.31	0.26	0.281	0.377	–	0.321	0.452	0.282	0.451	0.229
NCI-H2342	–	–	–	–	–	0.685	0.765	0.698	0.722	0.312	–	–	–	–	–	1.01	0.748	0.699	0.791	0.382
SW 900	–	–	–	–	–	0.388	0.623	0.535	0.211	0.0757	–	–	–	–	–	0.167	0.198	0.184	0.163	0.16
